≈ marks a conversion by molar mass, not a printed value.
Legend:
Assay in all cases: In vitro antibacterial evaluation: minimum inhibitory concentration (MIC), broth dilution method
Assay type in all cases: cell-based
Enterococcus sp. = system: Enterococcus sp.
Experimental: (§1) The minimum inhibitory concentration (MIC), the lowest concentration of the antibiotic which inhibits growth of the test organism, is determined by the broth dilution method using Muller-Hinton II […] (Baltimore Biological Laboratories) following the recommendations of the National Committee for Clinical Laboratory Standards [Methods for dilution antimicrobial susceptibility tests for bacteria that grow aerobically, approved standard M7-A2, National Committee for Clinical Laboratory Standards, Villanova, Pa].
(§2) An inoculum level of 5×10^5 CFU/mL, and a range of antibiotic concentrations (64-0.06 μg/mL) is used. […] The test organisms include a spectrum of Gram-positive bacteria comprised of Staphylococcus sp., Streptococcus sp. and Enterococcus sp. These organisms include recent clinical isolates that are resistant to methicillin, penicillin and/or vancomycin.

Staphylococcus sp. = conditions: broth dilution, 18 hours at 35° C.
Experimental: as §1, §2

Streptococcus sp. = system: Streptococcus sp.
Experimental: as §1, §2

Escherichia coli = system: Escherichia coli
Experimental: as §1, §2

- MIC Enterococcus faecalis (ATCC 29212) (Enterococcus sp.; strain ATCC 29212): 32 µg/mL (≈ 22.2 µM)
- MIC Enterococcus faecalis (GC 2242) (Enterococcus sp.; strain GC 2242): 16 µg/mL (≈ 11.1 µM)
- MIC Enterococcus faecium (GC 2243) (Enterococcus sp.; strain GC 2243): 32 µg/mL (≈ 22.2 µM)
- MIC Enterococcus faecalis (GC 2691) (Enterococcus sp.; strain GC 2691): 32 µg/mL (≈ 22.2 µM)
- MIC Enterococcus faecalis (GC 3059) (Enterococcus sp.; strain GC 3059): 32 µg/mL (≈ 22.2 µM)
- MIC Enterococcus faecalis (GC 4552) (Enterococcus sp.; strain GC 4552): 32 µg/mL (≈ 22.2 µM)
- MIC Enterococcus faecalis (GC 4553) (Enterococcus sp.; strain GC 4553): 32 µg/mL (≈ 22.2 µM)
- MIC Enterococcus faecalis (GC 4554) (Enterococcus sp.; strain GC 4554): 32 µg/mL (≈ 22.2 µM)
- MIC Enterococcus faecium (GC 4556) (Enterococcus sp.; strain GC 4556): 32 µg/mL (≈ 22.2 µM)
- MIC Enterococcus faecium (GC 4557) (Enterococcus sp.; strain GC 4557): 8 µg/mL (≈ 5.55 µM)
- MIC Enterococcus avium (GC 4558) (Enterococcus sp.; strain GC 4558): 32 µg/mL (≈ 22.2 µM)
- MIC Enterococcus faecalis (GC 6189) (Enterococcus sp.; strain GC 6189): 64 µg/mL (≈ 44.4 µM)
- MIC Coagulase Negative Staphylococcus (GC 4547) (Staphylococcus sp.; 5×10^5 CFU/mL): 4 µg/mL (≈ 2.77 µM)
- MIC Coagulase Negative Staphylococcus (GC 4548) (Staphylococcus sp.; 5×10^5 CFU/mL): 4 µg/mL (≈ 2.77 µM)
- MIC Coagulase Negative Staphylococcus (GC 4549) (Staphylococcus sp.; 5×10^5 CFU/mL): 2 µg/mL (≈ 1.39 µM)
- MIC Coagulase Negative Staphylococcus (GC 4551) (Staphylococcus sp.; 5×10^5 CFU/mL): 8 µg/mL (≈ 5.55 µM)
- MIC Coagulase Negative Staphylococcus (GC 6257) (Staphylococcus sp.; 5×10^5 CFU/mL): 2 µg/mL (≈ 1.39 µM)
- MIC Staphylococcus aureus (ATCC 29213) (Staphylococcus sp.; 5×10^5 CFU/mL): 8 µg/mL (≈ 5.55 µM)
- MIC Staphylococcus aureus (GC 1131) (Staphylococcus sp.; 5×10^5 CFU/mL): 8 µg/mL (≈ 5.55 µM)
- MIC Staphylococcus aureus (GC 3051) (Staphylococcus sp.; 5×10^5 CFU/mL): 8 µg/mL (≈ 5.55 µM)
- MIC Staphylococcus aureus (GC 3053) (Staphylococcus sp.; 5×10^5 CFU/mL): 16 µg/mL (≈ 11.1 µM)
- MIC Staphylococcus aureus (GC 4541) (Staphylococcus sp.; 5×10^5 CFU/mL): 4 µg/mL (≈ 2.77 µM)
- MIC Staphylococcus aureus (GC 4542) (Staphylococcus sp.; 5×10^5 CFU/mL): 8 µg/mL (≈ 5.55 µM)
- MIC Staphylococcus aureus (GC 4544) (Staphylococcus sp.; 5×10^5 CFU/mL): 8 µg/mL (≈ 5.55 µM)
- MIC Staphylococcus aureus (GC 4545) (Staphylococcus sp.; 5×10^5 CFU/mL): 4 µg/mL (≈ 2.77 µM)
- MIC Staphylococcus aureus-SMITH (GC 4543) (Staphylococcus sp.; 5×10^5 CFU/mL): 8 µg/mL (≈ 5.55 µM)
- MIC Staphylococcus aureus (ATCC 29213) (Staphylococcus sp.; strain ATCC 29213): 8 µg/mL (≈ 5.55 µM)
- MIC Staphylococcus aureus (GC 1131) (Staphylococcus sp.; strain GC 1131): 8 µg/mL (≈ 5.55 µM)
- MIC Staphylococcus aureus (GC 3051) (Staphylococcus sp.; strain GC 3051): 8 µg/mL (≈ 5.55 µM)
- MIC Staphylococcus aureus (GC 3053) (Staphylococcus sp.; strain GC 3053): 16 µg/mL (≈ 11.1 µM)
- MIC Staphylococcus aureus (GC 4541) (Staphylococcus sp.; strain GC 4541): 4 µg/mL (≈ 2.77 µM)
- MIC Staphylococcus aureus (GC 4542) (Staphylococcus sp.; strain GC 4542): 8 µg/mL (≈ 5.55 µM)
- MIC Staphylococcus aureus-SMITH (GC 4543) (Staphylococcus sp.; strain GC 4543): 8 µg/mL (≈ 5.55 µM)
- MIC Staphylococcus aureus (GC 4544) (Staphylococcus sp.; strain GC 4544): 8 µg/mL (≈ 5.55 µM)
- MIC Staphylococcus aureus (GC 4545) (Staphylococcus sp.; strain GC 4545): 4 µg/mL (≈ 2.77 µM)
- MIC Coagulase Negative Staphylococcus (GC 4547) (Staphylococcus sp.; strain GC 4547): 4 µg/mL (≈ 2.77 µM)
- MIC Coagulase Negative Staphylococcus (GC 4548) (Staphylococcus sp.; strain GC 4548): 4 µg/mL (≈ 2.77 µM)
- MIC Coagulase Negative Staphylococcus (GC 4549) (Staphylococcus sp.; strain GC 4549): 2 µg/mL (≈ 1.39 µM)
- MIC Coagulase Negative Staphylococcus (GC 4551) (Staphylococcus sp.; strain GC 4551): 8 µg/mL (≈ 5.55 µM)
- MIC Coagulase Negative Staphylococcus (GC 6257) (Staphylococcus sp.; strain GC 6257): 2 µg/mL (≈ 1.39 µM)
- MIC Streptococcus pneumoniae (ATCC 6301) (Streptococcus sp.; strain ATCC 6301): 1 µg/mL (≈ 0.693 µM)
- MIC Streptococcus pneumoniae (GC 1894) (Streptococcus sp.; strain GC 1894): 0.5 µg/mL (≈ 0.347 µM)
- MIC Streptococcus pyogenes (GC 4563) (Streptococcus sp.; strain GC 4563): 2 µg/mL (≈ 1.39 µM)
- MIC Streptococcus agalactiae (GC 4564) (Streptococcus sp.; strain GC 4564): 4 µg/mL (≈ 2.77 µM)
- MIC Streptococcus pneumoniae (GC 4565) (Streptococcus sp.; strain GC 4565): 1 µg/mL (≈ 0.693 µM)
- MIC Escherichia coli (ATCC 25922) (Escherichia coli; strain ATCC 25922): >64 µg/mL
- MIC Escherichia coli (GC 4559) (Escherichia coli; strain GC 4559): >64 µg/mL
- MIC Escherichi coli (GC 4560) (Escherichia coli; strain GC 4560): 2 µg/mL (≈ 1.39 µM)
SMILES: Cc1cc(C2OCC3OC(OC4C(CO)OC(Oc5ccc(CC6NC(=O)C(C(C)c7ccccc7)NC(=O)CNC(=O)C(CO)NC(=O)C(C(O)C7CNC(=N)N7C7OC(CO)C(O)C(O)C7O)NC(=O)C(C(O)C7CNC(=N)N7)NC6=O)cc5)C(O)C4O)C(O)C(O)C3O2)ccc1[N+](=O)[O-] (stereo not drawn) [Example 151, Cyclo[glycyl-β-methylphenylalanyl-O-[4-O-[4,6-O-(3-methyl-4-nitrobenzylidene)hexonyranosyl]hexopyranosyl]tyrosyl-3-(2-iminoimidazolidin-4-yl)seryl-3-(3-hexopyranosyl-2-iminoimidazolidin-4-yl)serylseryl]]
- MIC Staphylococcus haemolyticus (GC 4546) (Staphylococcus sp.; 5×10^5 CFU/mL): 2 µg/mL (≈ 1.39 µM)
- MIC Staphylococcus haemolyticus (GC 4546) (Staphylococcus sp.; strain GC 4546): 2 µg/mL (≈ 1.39 µM)

Source: patent US8247211B2, “Glycopeptide antibiotics” (American Cyanamid Company, priority 2001, dated 2012)
